Laboratory results from US20260373164A1, “4(RS)-4-F4-NEUROPROSTANE DERIVATIVES (4-F4T-NEUROP) AND THEIR USE IN TREATING VENTILATOR INDUCED DIAPHRAGMATIC DYSFUNCTION AND OTHER DISEASES” (INSTITUT NATIONAL DE LA SANTÉ ET DE LA RECHERCHE MÉDICALE, priority 2022, published 2026).
“Also recorded” adds a separate entry of the source.

Assays:
RyR1 = target: T1, RyR1 (Mus musculus, UniProt E9PZQ0); assay: Ca2+ sparks frequency in saponin skinned EDL muscle fibres of post myocardial infarction (PMI) mice; format: cell-based; conditions: 1 μM 4F4t-NeuroP, acute incubation; EDL fibres from PMI mice
T1 construct: Fluo-4 Ca2+ sparks

mouse diaphragm (VIDD) = assay: Diaphragm force-frequency relationship after 6 h of mechanical ventilation (murine model of VIDD); format: in vivo, C57/BL6 mice; conditions: for prevention of VIDD in murine model: general statement; for prevention of VIDD in murine model / protection against mechanical ventilation (force-frequency relationship): mice; for protection against mechanical ventilation (force-frequency relationship): IV
Method: 35 adult male mice (10 to 12 weeks old, 25 to 30 g) C57/BL6 mice were separated into five groups. Three groups were intubated with a 22-gauge angio-catheter and mechanically ventilated for 6 consecutive hours using a volume-driven small-animal ventilator (Minivent®, Harvard Apparatus, Saint-Laurent, Canada). Tidal volume was established at […] body weight with a respiratory rate of 150 breaths/min, a positive end-expiratory pressure (PEEP) level from 2 to 4 cm H2O and a fraction of inspired oxygen of 0.21. Non-spontaneous ventilation was defined as a lack of diaphragm contractile activity attested by repetitive stereotypical deflections observed in the airway pressure curve.
The mice were divided into two groups. The first group (control) received methanol, at the volume corresponding to the equivalent volume brought with 4F4t-NeuroP, intravenously (IV) infused over a 5-minute period, 20 minutes before start of MV. The second group of mice received 4F4t-NeuroP intravenously (IV) infused over a 5-minute period, 20 minutes before start of MV. The two groups were intubated and treated in an identical manner (see Matecki et al., 2016 for details^15).
At the end of the protocol of MV, the entire diaphragm was surgically excised and mice were euthanized, by exsanguination. Isometric contractile properties were assessed as described previously in detail (Matecki et al., 2016^15). The excised diaphragm strip was mounted into jacketed tissue bath chambers filled with equilibrated and oxygenated Krebs solution. The muscles were supra-maximally stimulated using square wave pulses (Model S48; Grass Instruments, West Warwick, RI). The force-frequency relationship was determined by sequentially stimulating the muscles for 600 ms at 10, 20, 30, 50, 60, 80, 100 and 120 Hz with 1 minute between each stimulation train. After measurement of contractile properties, muscles were measured at Lo (the length at which the muscle produced maximal isometric tension), dried and weighted. For comparative purposes, diaphragmatic force production was normalized for total muscle strip cross-sectional area and expressed in N·cm^−2. The total muscle strip cross-sectional area was determined by dividing muscle weight by its length and tissue density (1.056 g/cm^3).
Mice were anesthetized and mechanically ventilated for 6 hours. Mice were randomized to receive or not at the beginning of the ventilation a single IV injection of 4F4t-NeuroP at concentrations ranging from 0.01-100 μM to build a dose-response curve of the force-frequency relationship in order to define the optimal concentration.
As for 4F4t-NeuroP, VB558 was injected intravenously into the mouse at a concentration of 1 and 10 μM before ventilating the mice for 6 hours.

[1] = test system: mouse diaphragm muscle fibers; assay: Diaphragm muscle fibre atrophy (cross section area, fibre type) after 12 hours of mechanical ventilation in mice; format: in vivo; conditions: 10 μM, 12 h MV
Method: FIG. 3: A. Force frequency relationship of mice diaphragm muscle, after 12 hours of mechanical ventilation, treated or not with 10 μM 4F4t-NeuroP. […] Representative immunostaining of fast and slow diaphragm muscle fibers in mouse. Antibodies against fast- and slow-type myosin ATPase were used to perform immunostaining on cryosections of mouse diaphragm. Muscle membrane was counterstained with dystrophin antibodies. The staining was performed in diaphragm muscle 12 h after MV with or without 4F4t-NeuroP. Average cross-section area was quantified in each condition including all fibre type (B.) or by discriminating slow versus fast fibres (C.). D. Average distribution of Fast versus Slow twitch fibres in each condition. (*p<0.05 vs control)
6 hours of MV remains a rather short time of ventilation which represents a particular interest to explore proximal pathophysiological mechanisms of VIDD. As previously reported, 6 hours of mechanical ventilation is able to induce force deficit without histological alterations. However, 12 hours of mechanical ventilation can induce muscle atrophy by a mechanism mediated by RyR1 dependent SR Ca^2+-leak. The inventors therefore tested here the beneficial effect of 4F4t-NeuroP after 12 hours of mechanical ventilation.

RyR2 = conditions: cited from earlier work
[2] = Pharmacokinetic study in pigs, plasmatic concentration after IV bolus; format: in vivo, piglets; conditions: single IV bolus 0.250 mg·kg^−1, 3 pigs
Method: In a first set of experiment, a pharmacokinetic study was performed on 3 control pig injected with a single bolus of VB558 (0.250 mg·kg^−1). Blood samples were collected every regularly during 12 hours to evaluate the plasmatic concentration of VB558. […] In order to test the preventing effect of VB558 in the piglet model, the protocol of IV injection was slightly adapted to the duration of the mechanical ventilation (i.e 72 hours). The inventors injected a bolus of 0.250 mg·kg^−1 then a maintenance dose of 0.025 mg·kg^−1 every 12 hours (FIG. 5B). The VB558 group was compared to a group of piglets (placebo) receiving the same amount of solvent (methanol) (FIG. 5B).

prostanoid receptors = assay: In vitro binding assay on prostanoid receptors (agonist or antagonist effect); conditions: effects higher than 50% considered significant
Text: Prostaglandin (or prostanoid) receptors represent a family of cell surface membrane receptors known to bind and respond principally to metabolites of the polyunsaturated fatty acid (PUFA), arachidonic acid. As some of them are known to modulate cAMP production or intracellular calcium concentration, and based on the chemical structure of neuroprostanes (i.e DHA derivatives), the inventors performed an in vitro binding assay to specifically evaluate the potential agonist or antagonist effect of VB558 on established prostanoid receptors. Results showing an inhibition (or stimulation for assays run in basal conditions) higher than 50% are considered to represent significant effects of the test compounds.

[3] = test system: ventricular cardiomyocytes derived from DMD hIPSc (RyR2); assay: Diastolic level of calcium in ventricular cardiomyocytes derived from DMD hIPSc (indo-1); format: cell-based, human
Method: FIG. 6: Effect of Hexanor on the diastolic level of Calcium in ventricular cardiomyocytes derived from DMD and control hIPSc. The cardiomyocytes were loaded with indo-1 to assess in a ratiometric manner the intracellular level of calcium. […] A. The level of calcium is higher in DMD compared to control cells. This is prevented by hexanor (1 μM).
The inventors then tested the impact of VB558 on the diastolic level of Calcium in ventricular cardiomyocytes derived from Duchenne muscular dystrophy (DMD).

T1 sequence (E9PZQ0 whole entry): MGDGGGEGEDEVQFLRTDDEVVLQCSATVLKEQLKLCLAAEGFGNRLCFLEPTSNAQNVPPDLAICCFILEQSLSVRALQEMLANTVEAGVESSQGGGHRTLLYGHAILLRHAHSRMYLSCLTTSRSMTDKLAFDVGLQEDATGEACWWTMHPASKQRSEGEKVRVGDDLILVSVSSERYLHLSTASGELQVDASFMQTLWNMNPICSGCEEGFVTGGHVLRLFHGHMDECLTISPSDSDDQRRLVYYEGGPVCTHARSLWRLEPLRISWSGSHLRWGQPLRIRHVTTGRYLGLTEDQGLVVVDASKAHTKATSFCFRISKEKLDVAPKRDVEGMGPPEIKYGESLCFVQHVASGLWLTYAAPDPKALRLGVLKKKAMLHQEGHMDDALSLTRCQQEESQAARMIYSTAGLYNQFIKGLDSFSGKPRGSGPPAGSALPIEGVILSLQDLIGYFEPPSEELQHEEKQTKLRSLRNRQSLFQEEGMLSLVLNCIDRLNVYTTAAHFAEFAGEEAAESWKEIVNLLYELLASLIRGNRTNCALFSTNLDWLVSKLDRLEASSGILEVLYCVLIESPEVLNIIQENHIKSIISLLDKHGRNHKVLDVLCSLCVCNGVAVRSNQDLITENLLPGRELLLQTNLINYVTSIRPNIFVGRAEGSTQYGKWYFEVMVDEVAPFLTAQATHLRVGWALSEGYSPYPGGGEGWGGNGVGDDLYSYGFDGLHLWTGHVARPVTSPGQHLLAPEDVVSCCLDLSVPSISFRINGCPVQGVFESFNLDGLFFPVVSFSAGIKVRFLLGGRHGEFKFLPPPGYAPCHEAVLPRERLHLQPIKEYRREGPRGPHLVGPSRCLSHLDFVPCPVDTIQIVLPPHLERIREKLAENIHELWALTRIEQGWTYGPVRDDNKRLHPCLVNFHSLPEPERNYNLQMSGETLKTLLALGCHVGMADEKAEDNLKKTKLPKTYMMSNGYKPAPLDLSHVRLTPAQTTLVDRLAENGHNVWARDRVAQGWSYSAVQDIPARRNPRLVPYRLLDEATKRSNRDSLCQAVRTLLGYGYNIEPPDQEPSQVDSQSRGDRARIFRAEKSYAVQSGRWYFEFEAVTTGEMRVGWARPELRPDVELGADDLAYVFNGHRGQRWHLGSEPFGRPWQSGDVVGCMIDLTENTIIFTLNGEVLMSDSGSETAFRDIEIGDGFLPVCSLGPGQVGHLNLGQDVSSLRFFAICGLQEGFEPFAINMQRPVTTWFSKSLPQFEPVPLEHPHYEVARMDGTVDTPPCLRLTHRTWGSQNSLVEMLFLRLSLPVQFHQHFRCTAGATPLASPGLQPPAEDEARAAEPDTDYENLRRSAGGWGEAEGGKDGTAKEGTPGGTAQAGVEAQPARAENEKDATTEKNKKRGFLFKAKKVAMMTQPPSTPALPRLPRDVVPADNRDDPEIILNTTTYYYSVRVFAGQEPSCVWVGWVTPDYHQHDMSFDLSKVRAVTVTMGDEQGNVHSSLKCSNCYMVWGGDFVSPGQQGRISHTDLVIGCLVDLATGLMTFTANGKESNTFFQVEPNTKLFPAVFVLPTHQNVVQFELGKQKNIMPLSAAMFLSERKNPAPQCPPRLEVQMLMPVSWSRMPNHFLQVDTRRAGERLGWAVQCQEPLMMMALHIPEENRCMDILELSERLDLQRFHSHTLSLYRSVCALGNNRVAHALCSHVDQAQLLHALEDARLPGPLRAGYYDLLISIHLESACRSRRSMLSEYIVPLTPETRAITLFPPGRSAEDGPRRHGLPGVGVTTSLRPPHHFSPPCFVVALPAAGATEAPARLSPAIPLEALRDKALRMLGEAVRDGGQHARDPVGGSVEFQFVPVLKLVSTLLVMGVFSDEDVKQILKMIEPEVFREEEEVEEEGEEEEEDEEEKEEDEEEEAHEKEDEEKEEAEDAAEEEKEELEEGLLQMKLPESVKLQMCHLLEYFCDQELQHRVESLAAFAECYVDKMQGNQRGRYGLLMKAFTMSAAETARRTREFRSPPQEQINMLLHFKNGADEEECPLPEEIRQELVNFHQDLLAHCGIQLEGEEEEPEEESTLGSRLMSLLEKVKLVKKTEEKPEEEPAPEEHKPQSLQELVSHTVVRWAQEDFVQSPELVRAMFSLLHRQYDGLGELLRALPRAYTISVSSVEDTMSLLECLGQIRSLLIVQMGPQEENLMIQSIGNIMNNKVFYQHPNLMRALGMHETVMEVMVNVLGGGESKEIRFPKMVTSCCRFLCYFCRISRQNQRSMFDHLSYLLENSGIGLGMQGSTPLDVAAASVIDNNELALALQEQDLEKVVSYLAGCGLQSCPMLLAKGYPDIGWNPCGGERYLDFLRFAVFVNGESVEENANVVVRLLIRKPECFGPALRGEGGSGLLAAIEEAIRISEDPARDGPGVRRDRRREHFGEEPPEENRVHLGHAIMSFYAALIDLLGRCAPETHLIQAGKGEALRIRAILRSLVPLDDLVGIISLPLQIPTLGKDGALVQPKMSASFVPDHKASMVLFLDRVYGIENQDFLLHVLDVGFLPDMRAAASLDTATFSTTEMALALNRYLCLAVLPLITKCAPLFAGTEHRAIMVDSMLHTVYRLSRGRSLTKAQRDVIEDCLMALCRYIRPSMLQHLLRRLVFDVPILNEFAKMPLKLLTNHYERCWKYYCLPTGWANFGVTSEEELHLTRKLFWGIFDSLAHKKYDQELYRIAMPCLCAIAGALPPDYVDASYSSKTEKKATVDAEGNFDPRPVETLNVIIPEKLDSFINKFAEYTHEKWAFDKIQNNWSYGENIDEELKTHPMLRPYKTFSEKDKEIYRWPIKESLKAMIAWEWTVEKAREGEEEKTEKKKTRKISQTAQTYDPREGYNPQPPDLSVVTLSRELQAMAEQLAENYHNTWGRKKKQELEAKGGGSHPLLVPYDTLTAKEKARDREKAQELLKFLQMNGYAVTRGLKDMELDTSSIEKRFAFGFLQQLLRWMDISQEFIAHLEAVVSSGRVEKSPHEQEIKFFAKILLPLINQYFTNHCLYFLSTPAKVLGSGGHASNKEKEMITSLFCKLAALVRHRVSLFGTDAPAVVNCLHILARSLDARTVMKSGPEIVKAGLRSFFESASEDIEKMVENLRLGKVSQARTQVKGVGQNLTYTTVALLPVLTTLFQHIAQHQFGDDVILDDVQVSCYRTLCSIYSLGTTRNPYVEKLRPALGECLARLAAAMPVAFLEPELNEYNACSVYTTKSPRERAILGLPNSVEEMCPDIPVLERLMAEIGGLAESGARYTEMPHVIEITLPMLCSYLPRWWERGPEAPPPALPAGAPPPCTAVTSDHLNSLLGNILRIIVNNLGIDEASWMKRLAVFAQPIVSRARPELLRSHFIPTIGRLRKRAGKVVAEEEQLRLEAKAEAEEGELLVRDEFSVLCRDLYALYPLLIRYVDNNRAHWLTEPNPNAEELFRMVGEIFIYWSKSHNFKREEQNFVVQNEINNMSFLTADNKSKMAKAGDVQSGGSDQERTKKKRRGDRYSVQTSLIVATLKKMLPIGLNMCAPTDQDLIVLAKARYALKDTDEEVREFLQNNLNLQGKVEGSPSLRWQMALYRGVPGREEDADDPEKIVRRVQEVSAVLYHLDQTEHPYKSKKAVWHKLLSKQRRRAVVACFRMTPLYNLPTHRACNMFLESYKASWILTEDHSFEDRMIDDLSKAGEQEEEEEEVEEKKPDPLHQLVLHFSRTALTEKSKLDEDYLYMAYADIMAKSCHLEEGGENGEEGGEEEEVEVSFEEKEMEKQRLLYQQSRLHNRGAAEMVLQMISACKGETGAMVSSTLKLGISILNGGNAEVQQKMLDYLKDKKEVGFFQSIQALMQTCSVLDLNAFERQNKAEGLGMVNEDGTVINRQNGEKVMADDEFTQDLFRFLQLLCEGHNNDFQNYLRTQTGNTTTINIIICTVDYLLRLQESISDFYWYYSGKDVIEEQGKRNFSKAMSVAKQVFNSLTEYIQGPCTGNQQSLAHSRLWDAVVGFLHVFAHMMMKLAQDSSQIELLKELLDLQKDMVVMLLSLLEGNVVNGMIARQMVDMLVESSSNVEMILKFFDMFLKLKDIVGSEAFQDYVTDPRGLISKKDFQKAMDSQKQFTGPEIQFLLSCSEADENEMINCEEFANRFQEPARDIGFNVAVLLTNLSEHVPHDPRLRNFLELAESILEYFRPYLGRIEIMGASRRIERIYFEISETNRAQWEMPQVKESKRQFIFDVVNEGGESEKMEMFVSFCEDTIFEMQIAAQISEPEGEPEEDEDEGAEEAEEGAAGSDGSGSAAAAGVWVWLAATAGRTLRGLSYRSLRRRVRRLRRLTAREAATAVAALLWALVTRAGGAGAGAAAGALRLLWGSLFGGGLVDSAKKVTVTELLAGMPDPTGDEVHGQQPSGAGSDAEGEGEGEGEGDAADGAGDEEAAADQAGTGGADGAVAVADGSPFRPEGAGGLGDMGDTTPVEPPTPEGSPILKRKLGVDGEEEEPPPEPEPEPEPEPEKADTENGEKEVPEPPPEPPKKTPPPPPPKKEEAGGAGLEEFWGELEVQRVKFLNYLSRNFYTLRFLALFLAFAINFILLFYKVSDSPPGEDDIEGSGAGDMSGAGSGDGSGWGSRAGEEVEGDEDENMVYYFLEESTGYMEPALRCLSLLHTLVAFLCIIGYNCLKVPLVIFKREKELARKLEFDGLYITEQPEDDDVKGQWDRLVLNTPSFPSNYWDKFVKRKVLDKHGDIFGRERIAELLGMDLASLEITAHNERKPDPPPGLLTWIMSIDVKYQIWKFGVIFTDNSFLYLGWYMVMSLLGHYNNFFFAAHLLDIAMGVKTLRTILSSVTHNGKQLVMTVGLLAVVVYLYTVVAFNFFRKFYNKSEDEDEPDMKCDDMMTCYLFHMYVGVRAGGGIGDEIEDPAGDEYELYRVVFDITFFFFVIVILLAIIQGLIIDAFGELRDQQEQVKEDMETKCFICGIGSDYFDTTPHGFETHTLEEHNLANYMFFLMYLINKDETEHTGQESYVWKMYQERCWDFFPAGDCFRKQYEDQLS

SMILES: CC/C=C\C/C=C\C/C=C\C[C@@H]1[C@H](/C=C/C(O)CCC(=O)O)[C@@H](O)C[C@H]1O (mixture of isomers) [Compound 4F4t-NeuroP, 4(RS)-4-F4t-Neuroprostane]
- Ca2+-sparks frequency / RyR1-dependent leaky behavior (RyR1): full prevention of this RyR1-dependent leaky behavior
- prevention of VIDD in murine model (mouse diaphragm (VIDD)): prevent with a high efficiency VIDD
- prevention of VIDD / diaphragm weakness (force-frequency relationship) (mouse diaphragm (VIDD); single IV injection of 4F4t-NeuroP 0.01-100 μM, 6 h MV): prevents diaphragm weakness induced after 6 h of mechanical ventilation; also recorded: full prevention of VIDD
- concentration giving maximal effect in VIDD prevention (mouse diaphragm (VIDD); single IV injection, dose response 0.01-100 μM, 6 h MV, maximal force at 120 Hz): about 0.3 μM
- distribution of fiber type (slow vs fast) [1]: without changing the distribution of fiber type
- muscle fibre atrophy / cross section area (CSA) [1]: prevents diaphragm muscle fibres atrophy after 12 hours of mechanical ventilation independently of the fibre phenotype; also recorded: prevents the reduction of cross section area (CSA), independently of the muscle fiber phenotype
- RyR2 mediated Ca2+-leak in cardiomyocytes (RyR2; previous study [30]): able to prevent RyR2 mediated Ca^2+-leak in cardiomyocytes
- cardiac anti-arrhythmic effect, RyR2 stabilization (RyR2; previously reported (ref. 21)): the active molecule was not DHA itself but a non-enzymatic metabolite of DHA

SMILES: CC/C=C\C[C@@H]1[C@H](/C=C/C(O)CCC(=O)O)[C@@H](O)C[C@H]1O (mixture of isomers) [VB558, (E)-6-((1S,2R,3R,5S)-3,5-dihydroxy-2-((Z)-pent-2-en-1-yl)cyclopentyl)-4-hydroxyhex-5-enoic Acid]
- protection against mechanical ventilation (force-frequency relationship) (mouse diaphragm (VIDD); VB558 1 μM, 6 h MV): significant protection against mechanical ventilation in a range similar to that was obtained with 4F4t-NeuroP
- protection against mechanical ventilation (force-frequency relationship) (mouse diaphragm (VIDD); VB558 10 μM, 6 h MV): significant protection against mechanical ventilation in a range similar to that was obtained with 4F4t-NeuroP
- prevention of VIDD in murine model (mouse diaphragm (VIDD)): prevents VIDD; also recorded: prevent with a high efficiency VIDD
- Tmax ([2]; pig, plasma, 0.25 mg/kg, read-out: time of plasmatic peak): 5 to 10 min
- biodistribution [2]: fast biodistribution
- dissipation of plasmatic peak [2]: dissipated rapidly within an hour
- significant effect (inhibition or stimulation higher than 50%) at prostanoid receptors (prostanoid receptors): not observed at any of the receptors studied
- diastolic level of calcium ([3]; 1 μM, without isoproterenol, DMD hIPSc cardiomyocytes): prevented
- RyR2 dysfunction in DMD ([3]; DMD-derived ventricular cardiomyocytes): may be prevented
- resting calcium under isoproterenol stimulation ([3]; hexanor, Iso 1 μM, DMD hIPSc cardiomyocytes): full normalization of the resting calcium
